# Experiments:
# NFκB [1] = test: NFκB-dependent transcription, NFκB luciferase reporter in CCRF-CEM cells activated with PI; assay type: cell-based
# From the text: (§1) Reporter plasmids were transfected into CCRF-CEM cells using nucleofection (Nucleofector; AMAXA, Germany). Reporter plasmids expressing firefly luciferase (Luc) were purchased from Stratagene. pNFAT-Luc contains four NFAT binding sites; pGRE-Luc contains four GRE sites, and pAP1-Luc contains seven AP1 binding sites. The NFκB luciferase reporter, p(IL6κB)3-50hu.IL6-luc+, contains three NFκB sites and was a generous gift of Dr. De Bosscher (University of Ghent, Belgium). 10^7 cells suspended in 100 μL Amaxa ‘R’ Cell-line solution were transferred to a cuvette. One μL (1 μg/μL) of solution containing reporter plasmid (firefly luciferase) and control plasmid (pRL-TK-Renilla) (Renilla luciferase) (Promega) at a ratio of (10:1) were added to the cell suspension. […] After transfection the cells were suspended in 200 μL medium, allowed to recover for an hour, equal volume of medium containing 2× drugs were added and incubated at 37° C. for 30 min. Then the cells were stimulated with PI for another five hours. The luciferase activity of each of plasmid and control Renilla-plasmid were measured as per the procedure in Promega Luciferase assay kit.
# NFκB-dependent transcription was measured by transient transfection of an NFκB reporter plasmid into CCRF-CEM cells and subsequent activation with PI.
# NFAT [2] = test: NFAT-dependent transcription, NFAT luciferase reporter in CCRF-CEM cells activated with PI; assay type: cell-based
# From the text: as §1
# AP1 = test: AP1-dependent transcription, AP1 luciferase reporter in CCRF-CEM cells activated with PI; assay type: cell-based
# From the text: as §1
# p38 = p38 phosphorylation western blot, activated primary T cells; assay type: cell-based, human; conditions: primary T cells activated 30 minutes
# Description: (§2) Purified primary human T-cells (10^7 T-cells at 1×10^6 cells/ml) were pretreated with various drugs for 30 min at 37° C. and then stimulated for 30 minutes with PMA and ionomycin. Cells were then pelleted and extracted with 2× protein load dye (Invitrogen, NP0008). Total cell lysates were boiled and centrifuged before loading. 10-15 μl of lysate (approximately 250,000 cells) per lane was run on a 10-12% Tris-Bis gel, or a 3-8% Tris-Acetate gel (precast from Invitrogen). Proteins were immunoblotted onto immobilon PVDF membrane (Millipore) for 30 min using an Owl Semi-Dry electroblotting system. Membranes were blocked with 4% milk for two hours and then incubated with appropriate primary antibodies, washed three times and then probed with secondary antibodies. Chemi-glow™ (Alpha Innotech) chemilluminescent detection solutions were added and image visualized and captured using an Alpha Imager 8900 (Alpha Innotech). NFAT1 was visualized using an antibody obtained from BD Transduction Laboratory (#610703). IκB-alpha was visualized using an antibody from Santa Cruz Biotechnology (#sc371). Mitogen activated protein kinases (MAPK) were visualized using the following antibodies obtained from Cell Signaling: ERK p44/p42 (phospho, #9101; total, #9102); p38 (phospho, #9211; total, #9212); and JNK/SAPK (phospho, #9251; total, #9252).
# (§3) Purified primary T cells were activated for 30 minutes and extracted for western blot analysis. Activation of each MAPK was tracked using phosphospecific antibodies to a regulatory site on each type of MAPK, normalized by the measurement of total amounts of each MAPK species (FIGS. 4A-4C).
# IκB = IκB degradation western blot, PI-activated primary T cells; assay type: cell-based, human; conditions: PI 30 min
# Description: as §2
# Primary T cells were activated in vitro with PI (30 min) and extracted for western blot analysis.
# ERK1/2 = ERK1/2 phosphorylation western blot, activated primary T cells; assay type: cell-based, human; conditions: highest dose tested: cyclosporine 1 μM, prednisolone 3 μM, amoxapine 30 μM, paroxetine 30 μM
# Description: as §2, §3
# NFAT [3] = test: NFAT nuclear translocation by immunofluorescence in PI-activated CCRF-CEM cells; assay type: cell-based
# From the text: NFAT1 was visualized using an antibody obtained from BD Transduction Laboratory (#610703).
# NFAT [4] = test: NFAT dephosphorylation band shift on western blot, PMA/ionomycin-activated primary T cells; assay type: cell-based, human; conditions: up to 3 μM
# Description: as §2, with “Mitogen activated protein kinases (MAPK) were visualized using the following antibodies obtained from Cell Signaling: ERK p44/p42 (phospho, #9101; total, #9102); p38 (phospho, #9211; total, #9212); and JNK/SAPK (phospho, #9251; total, #9252).” left out
# T cells were isolated from the buffy coat of male donors between the ages of 35 to 50 years. These T cells were activated in vitro with PMA/ionomycin (PI) for 30 minutes and the phosphorylation of NFAT analyzed by mobility shift on a western blot. […]
# NFκB [5] = conditions: activated CCRF-CEM cells, p65
# JNK = JNK activation (phosphorylation) western blot, activated primary T cells; assay type: cell-based, human; conditions: primary T cells activated 30 minutes
# Description: as §2, with “#9252). […]” for “#9252).”
compound,measurement,setting,value
"O=C(/C=C/c1ccc(O)c(O)c1)OCCc1ccccc1 [CAPE, caffeic acid phenethyl ester]",inhibition of NFκB-dependent transcription,"NFκB [1]; CCRF-CEM cells, NFκB reporter, PI",inhibited
Fc1ccc([C@@H]2CCNC[C@H]2COc2ccc3c(c2)OCO3)cc1 [paroxetine],IC50,"NFAT [2]; Homo sapiens, CCRF-CEM cells, NFAT reporter, read-out: IC50, inhibition of PI-stimulated NFAT transcription",9 µM
same,IC50,"AP1; CCRF-CEM cells, AP1 reporter, PI",20 to 30 µM
same,concentration above which some phospho-p38 inhibition is seen,p38,above 10 μM
same,concentration at which IκB stabilization effects begin,IκB,15 µM
same,prevention of phosphorylation of ERK1/2,ERK1/2,not effective
same,IC50,"NFAT [3]; Homo sapiens, read-out: IC50, inhibition of NFAT translocation",30 µM
C[C@]12C=CC(=O)C=C1CC[C@@H]1[C@@H]2[C@@H](O)C[C@@]2(C)[C@H]1CC[C@]2(O)C(=O)CO [prednisolone],inhibition of PI-stimulated NFAT transcription,NFAT [2]; even at high doses,no strong inhibition
same,effect on NFAT dephosphorylation,NFAT [4],no effect
same,effect on NFκB translocation,NFκB [5],no effect
same,inhibition of AP1-dependent transcription,AP1; at 300 nM,30%
same,effect in the p38 assay,p38,no effect
same,effect on JNK,JNK,no effect
same,effect on IκB degradation,IκB,no effect
same,prevention of phosphorylation of ERK1/2,ERK1/2,not effective
same,inhibition of NFκB-dependent transcription,NFκB [1]; at 1 μM,30%
same,activity in NFAT translocation assay,NFAT [3],not active
Clc1ccc2c(c1)C(N1CCNCC1)=Nc1ccccc1O2 [amoxapine],effect in the p38 assay,p38,no effect
same,concentration at which IκB stabilization effects begin,IκB,25 µM
same,prevention of phosphorylation of ERK1/2,ERK1/2,not effective

# Source: patent publication US20050271661A1, “Methods and reagents for the treatment of immunoinflammatory disorders” (priority 2004, published 2005)
